In data set [1] the test system is SARS-CoV-2 (hCoV-19/Korea/KCDC-06/2020). The data set is described as follows: Cell-based antiviral assay against SARS-CoV-2 in Vero cells. Particulars: ratio of EC50, in vitro.
The next data set concerns Flu B/Lee/40 (Lee). The data set is described as follows: Cell-based antiviral assay against Flu B in MDCK cells. Also noted: species or system influenza B virus.
Data set [2] deals with DENV-2 replicon BHK-21 (DENV2-BHK) cells. The class given is cell-based.
Data set [3] relates to cells of the SARS-CoV-2, Flu A/B and DENV-2 assays.
Where [4] appears, read: in vitro, summary for SARS-CoV-2, Flu A/B and DENV-2 assays.

Like-named read-outs stand apart in the source and are kept apart here. A value given as a limit tells only on which side of the number the result lay.

In the case of `CC(C)C(=O)ONc1ccn([C@@H]2O[C@H](CO)[C@@H](O)[C@H]2O)c(=O)n1` [8a, β-D-N^4-O-isobutyrylcytidine], the “potency against SARS-CoV-2 compared to NHC (1)” value in data set [1] was over 5 fold. Besides, the “potency (EC50) against Flu B compared with T-705 and amantadine (AMT)” value with Flu B/Lee/40 (Lee) is reported as “about 2 fold”. In data set [2], the “potency (EC50) against DENV-2 compared with T-705 and amantadine (AMT)” value is “about 2 fold”.
With `CC(C)(C)OC(=O)NNc1ccn([C@@H]2O[C@H](CO)[C@@H](O)[C@H]2O)c(=O)n1` [8b, C4-Boc-hyrazinyl cytidine], in data set [3] (setting [4]), the cell cytotoxicity is listed as over 100 µM.
Consider `Cl.NNc1ccn([C@@H]2O[C@H](CO)[C@@H](O)[C@H]2O)c(=O)n1` [compound 9, N ^4-aminocytidine], for which the cell cytotoxicity in data set [3] (African green monkey (Vero), hamster (BHK-21), dog (MDCK)) is over 100 µM.
In data set [3] (setting [4]), C4-2‑hydroxylethyl cytidine [8c] had a cell cytotoxicity of over 100 µM.

The values are drawn from publication PMC9905048 (Bioorganic & Medicinal Chemistry Letters, 2023).
